For data set [1], the system named is rheumatoid arthritis patients. Nature of the data set: Double-blind clinical trial of 10-deazaaminopterin versus methotrexate in rheumatoid arthritis: toxicity evaluation. The note with it: for Toxicity: Dizziness / Toxicity: Gastrointestinal / Toxicity: Leukopenia / Toxicity: Rash: n = 7 per arm, 18 week trial. It counts as in vivo, human. As to the method:
The double-blind clinical trail of 10-deazaaminopterin versus methotrexate in rheumatoid arthritis was conducted at Universidad Peruana Cayetano Heredia, Lima, Peru. In order to detect 30% differences in either direction for both -efficacy and toxicity a sample size of 20 was used. The trial was conducted according to the following protocol.
The null hypotheses to be investigated included the following
Randomization was performed before the study began; an equal number of patients in each arm of the protocol was secured. Codes were made available to the investigator in sealed envelopes at the beginning of the trial; they were allowed to be opened by the investigator, only if felt to be mandatory for patient management. Patients received a three week supply of either 10-deazaaminopterin or methotrexate. […] Initially the patients received three capsules/week (or 7.5 mg). The capsules were taken at 12 hour intervals over a 24 hour period (8 a.m.-8 p.m. -8 a.m. the following day).
A data base which included a complete history, physical and laboratory exams was completed (Visit 0 or eligibility visit). […] If the patient was felt to be eligible, he/she was entered into the trial the following week (Visit 1) at which time disease activity was assessed and a functional test completed. Patients returned to the clinic every three weeks at which time joint counts were performed, side effects monitored and laboratory studies obtained. An assessment of response was done at week nine (Visit 3). At week 18 (Visit 6) or before (if the patient decides to be removed from the trial) the patient would have a complete exit evaluation, similar to the one performed on visit 1.
Joint counts for pain/tenderness in 60 diarthrodial joints and for swelling in 58 diarthrodial joints Laboratory tests included: CBC, with platelets and differential, Creatinine, SGOT and Alkaline phosphatase. […] 5 ml of sera were secured at entry and at study completion and stored at -20° C. for further studies.
Adverse effects were determined by interviewing the patient; each new symptom developing since the previous visit were recorded as to the date or onset, date of cessation, and whether it was felt to be related or unrelated to the study drug(s).
Minor itching and skin rashes could be handled with antihistaminics or topical steroids; a drop in the WBC ([…]) or in the platelets (<100,000/mm^3), or an increase in the liver enzymes ×2 normal), or an increase in the baseline creatinine (×2 normal) would prompt holding the drug for one week; if the values improved, patients may be restarted on the drug; if no improvement occurs in 3 weeks, the patient should be withdrawn. […] If no improvement occurs in 3 weeks, the patient should be withdrawn from the trial. If a patient develops a serious intercurrent infectious process, or requires elective or emergency surgery during the study period, the patient should be withdrawn from the trial.

For data set [2] the following is noted: mammalian tissues; cited from earlier work.
For another data set, the system named is dihydrofolate reductase. The note with it: 10-deazaaminopterin compared with methotrexate; cited from earlier work.
The next data set has as its system cancer patients. The note with it: anticancer clinical trials, Cancer Treatment Reports 71:95, 1987; cited from earlier work.
Data set [3] relates to patients receiving methotrexate. Conditions: cited from earlier work.

Structures are written as SMILES.

The text below walks through data of US5030634A (priority 1990, dated 1991).

As for `Nc1nc(N)c2nc(CCc3ccc(C(=O)NC(CCC(=O)O)C(=O)O)cc3)cnc2n1` (stereo not shown) [10-deazaaminopterin], in data set [1] (clinical trials (not further specified), compared with methotrexate), the “Toxicity in humans versus methotrexate (in words)” value is “remarkably less toxic to humans”. The “Frequency of toxicity (in words)” value in data set [1] (human, in vivo) is “low frequency of toxicity”. For the same compound, in data set [1], the “Toxicity: Dizziness” value is reported as 0, the “Toxicity: Gastrointestinal” value stood at 2, the “Toxicity: Leukopenia” value stood at 0 and the “Toxicity: Rash” value worked out at 1. Also, in data set [2], the Metabolism to poly-gamma-glutamates result is listed as “also metabolized to its poly-gamma-glutamates in mammalian tissues”. The “Inhibition of dihydrofolate reductase (in words)” value with dihydrofolate reductase is “inhibit this enzyme to approximately the same magnitude”. Moreover, in the data set on cancer patients, the Bone marrow depression entry is on record as “minimal”; the Nausea and vomiting entry was “mild”.

With `CN(Cc1cnc2nc(N)nc(N)c2n1)c1ccc(C(=O)N[C@@H](CCC(=O)O)C(=O)O)cc1` [methotrexate, reference compound], in data set [1], the “Toxicity: Dizziness” value was 1, the “Toxicity: Gastrointestinal” value is reported as 2, the “Toxicity: Leukopenia” value came out at 1 and the “Toxicity: Rash” value worked out at 0. For the same compound, the Metabolism to poly-gamma-glutamates entry in data set [2] was “metabolism of methotrexate to its poly-gamma-glutamates”. In the data set with dihydrofolate reductase, the “Inhibition of dihydrofolate reductase (in words)” value is “inhibit this enzyme to approximately the same magnitude”. Further, the “Patients who experienced an adverse drug reaction during treatment” value in data set [3] (human, in vivo) is 93 % of patients. Moreover, in data set [3] (patients receiving methotrexate), the “Patients with toxic manifestations (nausea, stomatitis, elevated liver function tests, cytopenias, pulmonary toxicity)” value is 30-60 % of patients. In addition, the “Toxicity of methotrexate (in words)” value in data set [3] (use in rheumatoid arthritis) is reported as “very toxic drug”.
